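1) Cells in 96-well plates. 2) Compound, 48 h, 5 concentrations. 3) Linear interpolation between surrounding doses. 4) Unreached endpoint = highest concentration. At the TGI there is no net growth.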
Columns and labels:
Experiment in all cases: NCI tumour cell line growth inhibition, 48 h
LOX IMVI melanoma = tested on: LOX IMVI melanoma
UO-31 renal = tested on: UO-31 renal
CCRF-CEM leukemia = tested on: CCRF-CEM leukemia
SF-295 CNS = tested on: SF-295 CNS
HL-60(TB) leukemia = tested on: HL-60(TB) leukemia
HCC-2998 colon = tested on: HCC-2998 colon
SW-620 colon = tested on: SW-620 colon
T-47D breast = tested on: T-47D breast
UACC-257 melanoma = tested on: UACC-257 melanoma
A498 renal = tested on: A498 renal
TK-10 renal = tested on: TK-10 renal
ACHN renal = tested on: ACHN renal
SR leukemia = tested on: SR leukemia
SF-268 CNS = tested on: SF-268 CNS
HS 578T breast = tested on: HS 578T breast
PC-3 prostate = tested on: PC-3 prostate
786-0 renal = tested on: 786-0 renal
SK-MEL-2 melanoma = tested on: SK-MEL-2 melanoma
K-562 leukemia = tested on: K-562 leukemia
SF-539 CNS = tested on: SF-539 CNS

Row | SMILES | TGI (LOX IMVI melanoma) | TGI (UO-31 renal) | TGI (CCRF-CEM leukemia) | TGI (SF-295 CNS) | TGI (HL-60(TB) leukemia) | TGI (HCC-2998 colon) | TGI (SW-620 colon) | TGI (T-47D breast) | TGI (UACC-257 melanoma) | TGI (A498 renal) | TGI (TK-10 renal) | TGI (ACHN renal) | TGI (SR leukemia) | TGI (SF-268 CNS) | TGI (HS 578T breast) | TGI (PC-3 prostate) | TGI (786-0 renal) | TGI (SK-MEL-2 melanoma) | TGI (K-562 leukemia) | TGI (SF-539 CNS)
1 | COC(O)C(=O)c1c2c(cc3c1CC1(Cc4cc5c(cc4C1)CCC5)C3)CCC2 (stereo not given) | 22.8 µM | 35.8 µM | 20.5 µM | 41.8 µM | 44.3 µM | 42.8 µM | 35.5 µM | 50.4 µM | 33.1 µM | 31.8 µM | 32.1 µM | 29.3 µM | 15.1 µM | 36.1 µM | 53.3 µM | 30.8 µM | 27 µM | 32.1 µM | 36.2 µM | 31.5 µM
2 | O=C(C1OC1c1ccc(O)cc1)C12CC3CC(CC(C3)C1)C2 (stereo not given) | > 56.1 µM | > 86.1 µM | > 41.5 µM | > 100 µM | > 43.4 µM | > 100 µM | 70.3 µM | 51.6 µM | > 100 µM | > 96.1 µM | > 100 µM | > 94.5 µM | > 100 µM | > 100 µM | > 100 µM | > 100 µM | 48.2 µM | > 100 µM | > 61.3 µM | > 94.9 µM
3 | O=c1cc(NNc2ccccc2)[nH]c(=S)[nH]1 | 31.3 µM | > 100 µM | 88.6 µM | > 100 µM | 62.6 µM | 50.5 µM | 49.5 µM | > 100 µM | > 100 µM | > 100 µM | 90.6 µM | > 100 µM | 70.3 µM | > 100 µM | > 100 µM | > 100 µM | > 100 µM | 61.3 µM | 80.2 µM | > 100 µM
4 | O=C(CCCN1CCC2(CC1)OC(=O)N(c1ccccc1)C2=O)c1ccccc1 | > 100 µM | 46.3 µM | > 100 µM | > 100 µM | > 100 µM | > 100 µM | > 100 µM | > 100 µM | > 100 µM | > 100 µM | > 100 µM | > 100 µM | > 100 µM | > 100 µM | > 100 µM | > 100 µM | > 100 µM | > 100 µM | > 100 µM | > 100 µM

From PubChem BioAssay (NCI)
